SMILES strings stand for the structures. “And” between values parts separate entries of the source, which are not always exact repeats. Equal entries are not always repeated.

NK1 receptor, sequence (P25103 whole entry, species assumed): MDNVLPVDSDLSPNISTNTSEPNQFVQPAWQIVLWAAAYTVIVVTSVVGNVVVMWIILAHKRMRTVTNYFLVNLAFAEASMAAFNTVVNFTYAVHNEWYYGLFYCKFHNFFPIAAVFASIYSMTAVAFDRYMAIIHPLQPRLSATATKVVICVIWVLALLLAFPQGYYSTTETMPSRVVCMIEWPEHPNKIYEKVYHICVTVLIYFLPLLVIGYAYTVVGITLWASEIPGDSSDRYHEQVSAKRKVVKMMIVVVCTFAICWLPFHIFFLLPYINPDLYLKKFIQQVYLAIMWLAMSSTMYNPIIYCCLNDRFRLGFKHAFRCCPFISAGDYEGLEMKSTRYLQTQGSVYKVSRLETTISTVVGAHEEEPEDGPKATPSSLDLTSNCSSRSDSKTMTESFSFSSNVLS

This assay addresses NK1 receptor (Homo sapiens, UniProt P25103). Briefly: NK1 receptor binding: inhibition of the NK1 agonist Substance P, Ki from percent of maximum specific binding. As to conditions: inhibition constant from the concentration giving 50% inhibition of binding (Chang-Prusoff equation). The source says: The in vitro and in vivo NK1, NK2 and NK3 activities of the compounds having the formula (I) can be determined by various procedures known in the art, such as a test for their ability to inhibit the activity of the NK1 agonist Substance P. The percent inhibition of neurokinin agonist activity is the difference between the percent of maximum specific binding (“MSB”) and 100%. The percent of MSB is defined by the following equation, wherein “dpm” represents “disintegrations per minute”:
[formula] The concentration at which the compound produces 50% inhibition of binding is then used to determine an inhibition constant (“Ki”) using the Chang-Prusoff equation. In vivo activity may be measured by inhibition of an agonist-induced foot tapping in a gerbil, as described in Science, 281, 1640–1695 (1998), which is herein incorporated by reference thereto.
For the molecule `O=C1CCCN1N1CCC(COC(CO)c2cc(C(F)(F)F)cc(C(F)(F)F)c2)(c2ccccc2)CC1` (centres unmarked) [Example 57], the Ki lay within 0.3 to 3 nM.

`O=C1CCCN1N1CCC(COCc2cc(C(F)(F)F)cc(C(F)(F)F)c2)(c2ccccc2)CC1` [Example 49] had a Ki of 0.3 to 3 nM. As for `C[C@@H](OCC1(c2ccccc2)CCN(N2CCCC2=O)CC1)c1cc(C(F)(F)F)cc(C(F)(F)F)c1` [Example 56], the figure is 0.3 to 3 nM and ~0.3 nM; as for `O=c1[nH]ncn1N1CCC(COCc2cc(C(F)(F)F)cc(C(F)(F)F)c2)(c2ccccc2)CC1` [Example 64], 0.3 to 3 nM. `O=C1NCCN1N1CCC(COCc2cc(C(F)(F)F)cc(C(F)(F)F)c2)(c2ccccc2)CC1` [Example 51] yielded a Ki of 0.3 to 3 nM.

A word on the Ki: it is a measure of affinity in units of concentration, obtained from inhibition or displacement. High values mean a looser hold on the target, low ones a stronger hold on the target.

Values taken from patent US7041682B2, “NK1 antagonists” (Schering Corporation, priority 2002, dated 2006).
